Experiments:
Format in all cases: biochemical
MELK = MELK (Homo sapiens, UniProt Q14680); test: Kinase inhibition assay, IC50 (Table A); settings: Enzyme MELK
Procedure: (§1) The inhibiting activity of putative kinase inhibitors and the potency of selected compounds is determined through a method of assay based on the use of the Kinase-Glo® Luminescent Kinase Assay (commercially available from Promega corporation and described in Koresawa, M. and Okabe, T. (2004) High-throughput screening with quantitation of ATP consumption: A universal non-radioisotope, homogeneous assay for protein kinase. Assay Drug Dev. Technol. 2, 153-60).
(§2) The inhibitory activity of putative kinase inhibitors and the potency of selected compounds were also determined using a trans-phosphorylation assay.
(§3) Specific peptide or protein substrates are trans-phosphorylated by their specific ser-thr or tyr kinase in the presence of ATP traced with ^33P-γ-ATP, and in the presence of their own optimal buffer and cofactors. At the end of the phosphorylation reaction, more than 98% unlabeled ATP and radioactive ATP is captured by an excess of the ion exchange dowex resin; the resin then settles down to the bottom of the reaction plate by gravity. Supernatant is subsequently withdrawn and transferred into a counting plate, then evaluated by β-counting.
(§4) Reaction conditions are target (enzyme) dependent and thus undergo individual adaptations. Also the buffer conditions may vary depending on the kinase of interest. The assay can be used with virtually any kinase and substrate combination and is suitable for all type of protein kinases, such as ABL, ACK1, AKT1, ALK, AUR1, AUR2, BRK, BUB1, CDC7/DBF4, CDK21CYCA, CHK1, CK2, EEF2K, EGFR1, EphA2, EphB4, ERK2, FAK, FGFR1, FLT3, GSK3beta, Haspin, IGFR1, IKK2, IR, JAK1, JAK2, JAK3, KIT, LCK, LYN, MAPKAPK2, MELK, MET, MNK2, MPSI, MST4, NEK6, NIM1, P38alpha, PAK-4, PDGFR, PDK1, PERK, PIM1, PIM2, PKAalpha, PKCbeta, PLK1, RET, ROS1, SULU1, Syk, TLK2, TRKA, TYK, VEGFR2, VEGFR3, ZAP70.

KIT = KIT (Homo sapiens, UniProt P10721); test: Kinase inhibition assay, IC50 (Table A); settings: Enzyme KIT
KIT, sequence (P10721 26-976): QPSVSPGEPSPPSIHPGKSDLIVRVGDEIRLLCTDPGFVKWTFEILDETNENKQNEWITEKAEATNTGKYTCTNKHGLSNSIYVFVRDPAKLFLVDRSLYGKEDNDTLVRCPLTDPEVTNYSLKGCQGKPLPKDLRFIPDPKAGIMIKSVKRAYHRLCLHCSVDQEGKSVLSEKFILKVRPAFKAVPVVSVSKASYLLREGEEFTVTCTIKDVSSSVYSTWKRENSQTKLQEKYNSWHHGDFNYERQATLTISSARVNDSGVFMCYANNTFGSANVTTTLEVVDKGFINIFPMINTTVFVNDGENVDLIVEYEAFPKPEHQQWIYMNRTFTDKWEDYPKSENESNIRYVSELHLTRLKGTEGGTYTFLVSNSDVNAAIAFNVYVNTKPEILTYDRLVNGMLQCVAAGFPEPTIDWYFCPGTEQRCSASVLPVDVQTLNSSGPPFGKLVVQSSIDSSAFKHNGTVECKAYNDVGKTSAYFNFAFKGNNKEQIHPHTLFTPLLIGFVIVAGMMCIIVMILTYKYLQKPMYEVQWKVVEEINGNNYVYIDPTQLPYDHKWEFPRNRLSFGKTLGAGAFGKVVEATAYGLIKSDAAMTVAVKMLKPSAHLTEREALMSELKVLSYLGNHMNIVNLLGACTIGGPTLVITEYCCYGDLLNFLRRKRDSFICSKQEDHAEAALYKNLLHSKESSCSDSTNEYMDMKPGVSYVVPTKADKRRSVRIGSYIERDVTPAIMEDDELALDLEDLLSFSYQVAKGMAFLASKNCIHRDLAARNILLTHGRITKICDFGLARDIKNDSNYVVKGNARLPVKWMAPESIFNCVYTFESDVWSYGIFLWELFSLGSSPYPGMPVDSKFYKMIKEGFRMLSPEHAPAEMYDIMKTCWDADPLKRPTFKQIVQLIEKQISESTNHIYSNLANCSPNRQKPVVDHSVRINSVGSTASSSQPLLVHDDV
Procedure: as §1, §2, §3, §4

GSK3beta = GSK3beta (Homo sapiens, UniProt P49841); test: Kinase inhibition assay, IC50 (Table A); settings: Enzyme GSK3beta
GSK3beta, sequence (P49841 whole entry): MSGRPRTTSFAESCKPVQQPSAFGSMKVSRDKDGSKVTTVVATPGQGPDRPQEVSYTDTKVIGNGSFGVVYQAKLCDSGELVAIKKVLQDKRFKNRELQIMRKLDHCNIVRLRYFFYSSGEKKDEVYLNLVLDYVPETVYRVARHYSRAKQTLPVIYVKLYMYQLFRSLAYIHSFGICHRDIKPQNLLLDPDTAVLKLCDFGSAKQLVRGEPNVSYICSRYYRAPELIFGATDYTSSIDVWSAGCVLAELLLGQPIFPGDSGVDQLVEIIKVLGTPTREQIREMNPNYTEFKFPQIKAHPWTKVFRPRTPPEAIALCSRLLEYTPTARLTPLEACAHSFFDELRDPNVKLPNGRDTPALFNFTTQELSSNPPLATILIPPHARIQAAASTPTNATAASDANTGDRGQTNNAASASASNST
Procedure: as §1, §2, §3, §4

CDK2/CYCA = target: T1, CDK2/CYCA (Homo sapiens, UniProt P24941); test: Inhibition assay of Cdk2/Cyclin A activity (33P-ATP, histone H1 substrate); settings: Enzyme CDK2/CYCA
T1 construct: host or cells: baculovirus expression system (co-expression)
Procedure: as §2, §3
(§5) As example herein are reported the assay conditions used for testing the compounds of formula (I) against cdc7 and cdk2 kinase.
To each well of the plate were added: • 10 μl test compound (10 increasing concentrations in the nM to uM range to generate a dose-response curve). The solvent for test compounds contained 3% DMSO. (final concentration 1%) • 10 μl substrate MCM2 ([…] final concentration), a mixture of cold ATP ([…] final concentration) and radioactive ATP (1/5000 molar ratio with cold ATP). • 10 μl enzyme (Cdc7/Dbf4, 2 nM final concentration) that started the reaction. […]

CDC7/DBF4 = CDC7/DBF4 (Homo sapiens, UniProt O00311); test: Inhibition assay of Cdc7 activity (Dowex resin capture, 33P-ATP, MCM2 substrate); settings: Enzyme CDC7/DBF4
CDC7/DBF4, sequence (O00311 whole entry): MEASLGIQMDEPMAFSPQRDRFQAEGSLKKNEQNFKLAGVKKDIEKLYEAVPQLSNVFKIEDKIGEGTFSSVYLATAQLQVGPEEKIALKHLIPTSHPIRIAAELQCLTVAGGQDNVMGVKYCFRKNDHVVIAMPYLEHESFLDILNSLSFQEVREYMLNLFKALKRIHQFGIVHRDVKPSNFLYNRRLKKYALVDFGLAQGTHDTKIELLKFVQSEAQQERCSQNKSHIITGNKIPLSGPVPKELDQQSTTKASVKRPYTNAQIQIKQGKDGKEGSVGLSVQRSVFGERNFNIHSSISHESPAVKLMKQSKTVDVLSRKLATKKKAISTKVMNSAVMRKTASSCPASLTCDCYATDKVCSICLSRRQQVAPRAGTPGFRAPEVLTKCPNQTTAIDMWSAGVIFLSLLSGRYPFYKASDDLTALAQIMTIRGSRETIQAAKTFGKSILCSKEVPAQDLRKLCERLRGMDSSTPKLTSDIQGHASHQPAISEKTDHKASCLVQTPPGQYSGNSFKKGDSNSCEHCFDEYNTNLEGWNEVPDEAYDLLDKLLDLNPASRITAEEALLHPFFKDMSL
CDC7/DBF4, sequence (Q9UBU7 whole entry partner): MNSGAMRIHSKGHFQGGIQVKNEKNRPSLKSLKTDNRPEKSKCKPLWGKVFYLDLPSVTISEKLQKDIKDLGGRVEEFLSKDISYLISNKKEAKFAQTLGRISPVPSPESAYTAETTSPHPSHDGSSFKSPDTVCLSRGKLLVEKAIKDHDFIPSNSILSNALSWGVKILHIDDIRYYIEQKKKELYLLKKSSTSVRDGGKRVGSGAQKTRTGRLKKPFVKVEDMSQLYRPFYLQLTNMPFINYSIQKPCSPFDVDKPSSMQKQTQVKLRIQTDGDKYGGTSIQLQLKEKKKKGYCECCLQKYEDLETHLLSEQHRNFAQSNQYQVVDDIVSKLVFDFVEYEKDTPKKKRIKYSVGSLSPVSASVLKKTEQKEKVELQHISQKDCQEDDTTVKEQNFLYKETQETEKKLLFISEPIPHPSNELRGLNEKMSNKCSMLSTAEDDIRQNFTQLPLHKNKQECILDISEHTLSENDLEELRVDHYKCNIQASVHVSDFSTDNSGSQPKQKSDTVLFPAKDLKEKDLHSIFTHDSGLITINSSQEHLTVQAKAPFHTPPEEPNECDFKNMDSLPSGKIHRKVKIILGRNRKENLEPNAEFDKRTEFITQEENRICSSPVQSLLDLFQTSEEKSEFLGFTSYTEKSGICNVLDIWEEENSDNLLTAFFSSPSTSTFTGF
Procedure: as §2, §3, §5
Inhibition Assay of Cdc7 Activity
The inhibiting activity of putative Cdc7 inhibitors and the potency of selected compounds is determined through a method of assay based on the use of Dowex resin capture technology.
The assay consists of the transfer of radioactivity labeled phosphate moiety by the kinase to an acceptor substrate.
The resulting ^33P-labeled product is separated from unreacted tracer, transferred into a scintillation cocktail and light emitted is measured in a scintillation counter. […]

MELK, sequence (Q14680 whole entry): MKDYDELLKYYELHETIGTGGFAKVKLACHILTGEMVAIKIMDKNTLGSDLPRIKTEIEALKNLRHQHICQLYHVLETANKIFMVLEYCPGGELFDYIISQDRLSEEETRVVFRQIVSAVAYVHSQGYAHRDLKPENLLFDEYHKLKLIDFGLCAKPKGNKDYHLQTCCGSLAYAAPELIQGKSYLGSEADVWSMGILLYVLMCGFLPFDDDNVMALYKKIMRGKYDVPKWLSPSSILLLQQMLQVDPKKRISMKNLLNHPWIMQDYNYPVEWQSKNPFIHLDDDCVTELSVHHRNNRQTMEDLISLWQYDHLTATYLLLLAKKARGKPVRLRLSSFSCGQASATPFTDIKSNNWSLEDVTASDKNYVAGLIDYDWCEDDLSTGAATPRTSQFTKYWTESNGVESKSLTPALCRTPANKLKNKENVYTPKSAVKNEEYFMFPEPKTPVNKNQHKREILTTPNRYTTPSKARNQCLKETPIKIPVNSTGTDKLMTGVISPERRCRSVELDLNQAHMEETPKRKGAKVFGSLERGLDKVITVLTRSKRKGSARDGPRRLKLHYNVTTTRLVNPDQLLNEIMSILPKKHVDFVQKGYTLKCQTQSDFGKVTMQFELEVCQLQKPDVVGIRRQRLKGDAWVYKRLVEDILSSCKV

IC50 (MELK): 6330 nM
IC50 (KIT): 2610 nM
IC50 (GSK3beta): 1920 nM
IC50 (CDK2/CYCA): 1900 nM
IC50 (CDC7/DBF4): 2990 nM
SMILES: CNC(=O)c1cc2n(c1)CCc1c(NC(=O)c3ccc(N4CCN(C)CC4)cc3)n[nH]c1-2 [Example A16-M1-B18]

From patent publication US9127015B2, “Tricyclopyrazole derivatives” (NERVIANO MEDICAL SCIENCES S.R.L., priority 2009, dated 2015)
